Data published in patent US9884063B2, “Amido-substituted azole compounds” (Bayer Pharma Aktiengesellschaft, priority 2014, dated 2018).

Legend:
[1] = target: T1, TNKS1 (Homo sapiens, UniProt O95271); assay: Modified TNKS1 Assay 3 (BPS kit #80573, biotin-NAD+, 96 well); type: biochemical; details: human TNKS1, BPS kit #80573, 96 well
T1 sequence (O95271 1-1327): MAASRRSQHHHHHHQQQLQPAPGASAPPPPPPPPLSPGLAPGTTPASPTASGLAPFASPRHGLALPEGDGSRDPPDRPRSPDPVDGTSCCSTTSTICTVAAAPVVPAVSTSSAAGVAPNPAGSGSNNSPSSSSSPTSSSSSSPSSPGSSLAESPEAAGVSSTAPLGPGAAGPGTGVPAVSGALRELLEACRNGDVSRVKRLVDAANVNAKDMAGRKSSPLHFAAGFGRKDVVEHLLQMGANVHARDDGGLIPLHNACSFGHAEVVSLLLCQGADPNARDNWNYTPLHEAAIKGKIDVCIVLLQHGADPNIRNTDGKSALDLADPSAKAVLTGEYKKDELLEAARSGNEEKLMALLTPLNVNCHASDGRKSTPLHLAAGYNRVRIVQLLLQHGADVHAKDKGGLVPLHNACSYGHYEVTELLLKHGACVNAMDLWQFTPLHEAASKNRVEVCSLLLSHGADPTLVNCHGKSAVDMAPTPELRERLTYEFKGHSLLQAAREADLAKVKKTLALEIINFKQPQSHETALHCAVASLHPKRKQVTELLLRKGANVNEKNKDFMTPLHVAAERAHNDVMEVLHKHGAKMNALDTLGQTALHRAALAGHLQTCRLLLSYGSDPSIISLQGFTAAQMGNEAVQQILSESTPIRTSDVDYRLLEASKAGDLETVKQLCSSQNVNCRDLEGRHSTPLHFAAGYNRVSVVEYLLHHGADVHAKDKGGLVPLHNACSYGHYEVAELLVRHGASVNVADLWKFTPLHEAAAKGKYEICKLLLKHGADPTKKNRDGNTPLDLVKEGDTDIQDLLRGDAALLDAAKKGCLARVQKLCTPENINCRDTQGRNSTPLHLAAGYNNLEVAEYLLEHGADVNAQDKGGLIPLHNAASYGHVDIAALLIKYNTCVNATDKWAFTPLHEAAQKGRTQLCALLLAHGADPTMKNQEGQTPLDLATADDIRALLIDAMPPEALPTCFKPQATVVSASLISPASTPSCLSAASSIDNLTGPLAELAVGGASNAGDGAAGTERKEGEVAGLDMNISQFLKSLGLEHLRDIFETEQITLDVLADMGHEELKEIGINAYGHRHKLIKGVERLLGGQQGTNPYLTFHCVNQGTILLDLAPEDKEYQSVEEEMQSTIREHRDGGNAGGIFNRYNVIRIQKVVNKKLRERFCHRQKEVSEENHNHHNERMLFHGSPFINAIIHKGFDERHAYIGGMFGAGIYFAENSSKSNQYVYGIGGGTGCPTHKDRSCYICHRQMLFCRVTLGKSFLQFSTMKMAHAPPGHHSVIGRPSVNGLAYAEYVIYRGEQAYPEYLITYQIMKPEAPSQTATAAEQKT
Outline: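 Chemiluminescent assay of TNKS1-catalysed ribosylation of a protein substrate with biotin-labelled NAD+, detected via streptavidin-HRP; run per kit protocol. Inhibition lowers the signal, and IC50 is the compound concentration halving the normalised readout.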

[2] = system: HEK293 FOP control reporter cell line; assay: HEK293 FOP Assay (FOP control vector luciferase reporter); type: cell-based; details: Homo sapiens; HEK293 FOP control reporter cell line, 16 hours incubation, compound dilution series 50 μM to 15 nM
Outline: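 Stable HEK293 line carrying the FOP vector (randomized, non-functional TCF sites; Geneticin-selected) was run in parallel with the TOP line. Cells were plated 24 h ahead at 10000/well and given recombinant human Wnt-3a at 2500–5 ng/ml. Compounds were tested at 50 μM–15 nM (3.16-fold steps) in CAFTY buffer, pH 7.4, with 2 mM Ca2+ and 0.01% BSA.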

| Structure (SMILES) | IC50 [1] [nM] | IC50 [2] [nM] |
| --- | --- | --- |
| CC(CN1CCOCC1)NC(=O)c1[nH]cnc1C(=O)Nc1ccc(NC(=O)c2ccc(F)cc2Cl)cc1 (single isomer, unassigned; enantiomer 1) [Example 269, N^4-{4-[(2-chloro-4-fluorobenzoyl)amino]phenyl}-N^5-[1-(morpholin-4-yl)propan-2-yl]-1H-imidazole-4,5-dicarboxamide (enantiomer 1)] | 80 |  |
| CC(CN1CCOCC1)NC(=O)c1[nH]cnc1C(=O)Nc1ccc(NC(=O)c2ccc(F)cc2)cc1 (single isomer, unassigned; enantiomer 1) [Example 295, N^4-{4-[(4-fluorobenzoyl)amino]phenyl}-N^5-[1-(morpholin-4-yl)propan-2-yl]-1H-imidazole-4,5-dicarboxamide (enantiomer 1)] | > 500 |  |
| CC(CN1CCOCC1)NC(=O)c1[nH]cnc1C(=O)Nc1ccc(NC(=O)c2ccc(F)cc2)cc1 (single isomer, unassigned; enantiomer 2) [Example 296, N^4-{4-[(4-fluorobenzoyl)amino]phenyl}-N^5-[1-(morpholin-4-yl)propan-2-yl]-1H-imidazole-4,5-dicarboxamide (enantiomer 2)] | > 500 |  |
| O=C(Nc1ccc(NC(=O)c2[nH]cnc2C(=O)N2CC(F)C2)cc1)c1ccc(F)cc1Cl [Example 41, N-{4-[(2-chloro-4-fluorobenzoyl)amino]phenyl}-4-[(3-fluoroazetidin-1-yl)carbonyl]-1H-imidazole-5-carboxamide] | > 500 |  |
| O=C(Nc1ccc(NC(=O)c2[nH]cnc2C(=O)N2CC(F)C2)cc1)c1cc(F)c(F)cc1Cl [Example 47, N-{4-[(2-chloro-4,5-difluorobenzoyl)amino]phenyl}-4-[(3-fluoroazetidin-1-yl)carbonyl]-1H-imidazole-5-carboxamide] | > 500 |  |
| CN(C)CCNC(=O)c1nc[nH]c1C(=O)Nc1ccc(NC(=O)c2ccc(S(C)(=O)=O)cc2Cl)cc1 [Example 54, N^5-(4-{[2-chloro-4-(methylsulfonyl)benzoyl]amino}phenyl)-N^4-[2-(dimethylamino)ethyl]-1H-imidazole-4,5-dicarboxamide] | 20 |  |
| CCc1nc(C(=O)Nc2ccc(NC(=O)c3ccc(F)cc3Cl)cc2)c(C(=O)NCCN(C)C)[nH]1 [Example 69, N^4-{4-[(2-chloro-4-fluorobenzoyl)amino]phenyl}-N^5-[2-(dimethylamino)ethyl]-2-ethyl-1H-imidazole-4,5-dicarboxamide] | 50 |  |
| CCc1nc(C(=O)Nc2ccc(NC(=O)c3ccc(F)cc3Cl)cc2)c(C(=O)NCCN2CCCCC2)[nH]1 [Example 70, N^4-{4-[(2-chloro-4-fluorobenzoyl)amino]phenyl}-2-ethyl-N^5-[2-(piperidin-1-yl)ethyl]-1H-imidazole-4,5-dicarboxamide] | 20 |  |
| COC(=O)c1nc[nH]c1C(=O)Nc1ccc(NC(=O)c2ccccc2Cl)c(C)c1 [Example 86, methyl-5-({4-[(2-chlorobenzoyl)amino]-3-methylphenyl}carbamoyl)-1H-imidazole-4-carboxylate] |  | 23000 |
| CNC(=O)c1nc[nH]c1C(=O)Nc1ccc(NC(=O)c2ccccc2Cl)c(OC)c1 [Example 99, N^5-{4-[(2-chlorobenzoyl)amino]-3-methoxyphenyl}-N^4-methyl-1H-imidazole-4,5-dicarboxamide] | > 500 |  |
| CNC(=O)c1[nH]c(C(C)C)nc1C(=O)Nc1ccc(NC(=O)c2ccc(F)cc2Cl)cc1 [Example 106, N^4-{4-[(2-chloro-4-fluorobenzoyl)amino]phenyl}-2-isopropyl-N^5-methyl-1H-imidazole-4,5-dicarboxamide] |  | 13000 |
| CC(C)c1nc(C(=O)Nc2ccc(NC(=O)c3ccc(F)cc3Cl)cc2)c(C(=O)NCCN2CCCCC2)[nH]1 [Example 108, N^4-{4-[(2-chloro-4-fluorobenzoyl)amino]phenyl}-2-isopropyl-N^5-[2-(piperidin-1-yl)ethyl]-1H-imidazole-4,5-dicarboxamide] | 460 |  |
| NC(=O)c1nc[nH]c1C(=O)Nc1ccc(NC(=O)c2ccccc2Cl)cc1 [Example 120, N^5-{4-[(2-chlorobenzoyl)amino]phenyl}-1H-imidazole-4,5-dicarboxamide] | > 500 |  |
| O=C(Nc1ccc(NC(=O)c2nc[nH]c2C(=O)NCC2CC2)cc1)c1ccc(F)cc1Cl [Example 128, N^4-{4-[(2-chloro-4-fluorobenzoyl)amino]phenyl}-N^5-(cyclopropylmethyl)-1H-imidazole-4,5-dicarboxamide] | > 500 |  |
| O=C(Nc1ccc(NC(=O)c2nc[nH]c2C(=O)NCCO)cc1)c1ccc(F)cc1Cl [Example 132, N^4-{4-[(2-chloro-4-fluorobenzoyl)amino]phenyl}-N^5-(2-hydroxyethyl)-1H-imidazole-4,5-dicarboxamide] | > 500 |  |
| CCNC(=O)c1[nH]cnc1C(=O)Nc1ccc(NC(=O)c2ccc(F)cc2Cl)cc1 [Example 138, N^4-{4-[(2-chloro-4-fluorobenzoyl)amino]phenyl}-N^5-ethyl-1H-imidazole-4,5-dicarboxamide] | 260 |  |
| O=C(Nc1ccc(NC(=O)c2nc[nH]c2C(=O)NCC(F)F)cc1)c1ccc(F)cc1Cl [Example 139, N^4-{4-[(2-chloro-4-fluorobenzoyl)amino]phenyl}-N^5-(2,2-difluoroethyl)-1H-imidazole-4,5-dicarboxamide] | 290 |  |
| O=C(Nc1ccc(NC(=O)c2nc[nH]c2C(=O)N2CCC2)cc1)c1ccc(F)cc1Cl [Example 142, 5-(azetidin-1-ylcarbonyl)-N-{4-[(2-chloro-4-fluorobenzoyl)amino]phenyl}-1H-imidazole-4-carboxamide] | 190 |  |
| O=C(Nc1ccc(NC(=O)c2nc[nH]c2C(=O)N2CC3(COC3)C2)cc1)c1ccc(F)cc1Cl [Example 145, N-{4-[(2-chloro-4-fluorobenzoyl)amino]phenyl}-5-(2-oxa-6-azaspiro[3.3]hept-6-ylcarbonyl)-1H-imidazole-4-carboxamide] | > 500 |  |
| CC(C)(N)CNC(=O)c1ncoc1C(=O)Nc1ccc(NC(=O)c2ccc(F)cc2Cl)cc1 [Example 219, N^4-(2-amino-2-methylpropyl)-N^5-{4-[(2-chloro-4-fluorobenzoyl)amino]phenyl}-1,3-oxazole-4,5-dicarboxamide] | > 500 |  |
| CC(C)(O)CNC(=O)c1[nH]cnc1C(=O)Nc1ccc(NC(=O)c2ccc(F)cc2Cl)cc1 [Example 223, N^4-{4-[(2-chloro-4-fluorobenzoyl)amino]phenyl}-N^5-(2-hydroxy-2-methylpropyl)-1H-imidazole-4,5-dicarboxamide] | > 500 |  |
| O=C(Nc1ccc(NC(=O)c2nc[nH]c2C(=O)NCCN2CCCC2)cc1)c1ccc(F)cc1Cl [Example 228, N^4-{4-[(2-chloro-4-fluorobenzoyl)amino]phenyl}-N^5-[2-(pyrrolidin-1-yl)ethyl]-1H-imidazole-4,5-dicarboxamide] | 20 |  |
| O=C(Nc1ccc(NC(=O)c2nc[nH]c2C(=O)NCCN2CC[C@@H](F)C2)cc1)c1ccc(F)cc1Cl [Example 231, N^4-{4-[(2-chloro-4-fluorobenzoyl)amino]phenyl}-N^5-{2-[(3R)-3-fluoropyrrolidin-1-yl]ethyl}-1H-imidazole-4,5-dicarboxamide] | 170 |  |
| O=C(Nc1ccc(NC(=O)c2nc[nH]c2C(=O)NCC2CCOCC2)cc1)c1ccc(F)cc1Cl [Example 233, N^4-{4-[(2-chloro-4-fluorobenzoyl)amino]phenyl}-N^5-(tetrahydro-2H-pyran-4-ylmethyl)-1H-imidazole-4,5-dicarboxamide] | 480 |  |
